According to patent US20250108100A1, “C-TERMINAL FRAGMENT OF APOLIPOPROTEIN E AND APPLICATION THEREOF IN INHIBITING y-SECRETASE ACTIVITY” (SYNPHATEC (SHANGHAI) BIOPHARMACEUTICAL TECHNOLOGY CO., LTD., priority 2022, published 2025):
“Also recorded” adds a separate entry of the source.

Key:
[1] = system: human APP co-expressed in HEK 293T cells; experiment: α-CTF produced by APP co-expressed in HEK 293T cells (Western blot); assay type: cell-based; settings: Western blot, vs GFP control
Method: • a) A plasmid expressing the target protein in mammalian cells was constructed, and the protein expression promoter is CAG. • b) The target protein was expressed in HEK 293T cell line. Cells were subcultured one day before transfection, and transfection was performed when the degree of cell adhesion reached 70%-80%. The transfection reagent was lipofectamine2000 (ThermoFisher). • c) 4-6 hours post transfection, the medium were replaced with fresh cell culture medium. • d) 36-48 hours post transfection, the cells were lysed (10% 1M tris-HCl (pH=6.8), 4% SDS, 20% glycerol, 0.01% bromophenol blue), and the protein samples were collected and used for Western blot or stored in a −80° C. freezer. • e) Polyacrylamide gel electrophoresis. Before protein loading, the protein was boiled at 98° C. for 10 min, and then centrifuged at 12000 rpm for 10 min. Electrophoresis: 80V for the upper stacking gel; 120V for the lower separating gel. • f) Protein transfer. The filter paper was soaked in the electrophoresis solution before use, and the PVDF membrane was put in methanol for 10s to activate, and the gel after electrophoresis was taken out from the electrophoresis tank, put in the order of filter paper—PVD membrane—gel-filter paper from bottom to top, and they were put into the transfer instrument, with transferring in constant current at 0.1 A for 70 min. • g) Blocking and antibody incubation: the transferred PVDF membrane was placed in 5% BSA/TBST blocking solution, and blocked on a shaker at room temperature for 1 hour. The primary antibody was used to incubate at 4° C. overnight on a shaker (12-16 h); 1×TBST was used to wash three times, once every 10 minutes; the secondary antibody was used to incubate, shaked at room temperature for 1-2 h; 1×TBST was used to wash three times, once every 10 minutes. • h) Imaging by development: development was performed with ECL chemiluminescence hypersensitive chromogenic reagent.
(§1) Plasmids were transfected in HEK 293T or N2A cells for 36-48 hours and then lysed in cell lysis buffer [10% 1M tris-HCl (pH=6.8), 4% SDS, 20% glycerol, 0.01% bromophenol blue]. Lysates were shaken at room temperature for 10 min, then boiled for 10 min, and centrifuged at 12,000×g for 10 min. Proteins were run on 8% or 12% Tris-glycine SDS-PAGE and transferred to PVDF membranes (Life Technologies). Samples were incubated overnight at 4° C. with primary antibody diluted in 5% BSA buffer (in 1×TBST). After washing 3 times with 1×TBST, they were incubated with secondary antibody diluted in 5% BSA buffer (in 1×TBST) for 2 hours at room temperature. Finally, after washing 3 times with 1×TBST, the signal was detected by ECL Western blotting substrate (Solarbio, PE0010).
(§2) Data were analyzed by GraphPad Prism software (v6) using unpaired, paired, or one-sample t-tests. Aβ40 and Aβ42 levels were normalized to the corresponding GFP controls. α-CTF levels were normalized to FL-APP and corresponding GFP controls. All data are represented as mean±SEM. Statistical significance was defined as p<0.05. One, two, three and four stars (*) in the graph indicate p-values <0.05, <0.01, <0.001 and <0.0001, respectively.

[2] = system: APP co-expressed in mouse neuron cell line N2A; experiment: α-CTF produced by APP co-expressed in N2A cells (Western blot); assay type: cell-based; settings: Western blot, vs GFP control
Method: as §1, §2

[3] = system: ADAM10, BACE1, PS1 and PS2; experiment: mRNA (qRT-PCR) and protein (Western blot) expression of APP secretases in HEK 293T cells; assay type: cell-based, human; settings: qRT-PCR and Western blot, vs GFP control
Method: • a) A plasmid expressing the target protein in mammalian cells was constructed, and the protein expression promoter is CAG. • b) The target protein was expressed in HEK 293T cell line. Cells were subcultured one day before transfection, and transfection was performed when the degree of cell adhesion reached 70%-80%. The transfection reagent was lipofectamine2000 (ThermoFisher). • c) 4-6 hours post transfection, the medium were replaced with fresh cell culture medium. • d) 36-48 hours post transfection, the cells were lysed (10% 1M tris-HCl (pH=6.8), 4% SDS, 20% glycerol, 0.01% bromophenol blue), and the protein samples were collected and used for Western blot or stored in a −80° C. freezer. • e) Polyacrylamide gel electrophoresis. Before protein loading, the protein was boiled at 98° C. for 10 min, and then centrifuged at 12000 rpm for 10 min. Electrophoresis: 80V for the upper stacking gel; 120V for the lower separating gel. • f) Protein transfer. […]
Quantitect SYBR-Green qRT-PCR kit from Qiagen was used to quantitatively analyze the relative content of mRNA. qRT-PCR primers were listed in Table 2. […]

wild-type mice = experiment: Endogenous Aβ40 in brain of wild-type mice after AAV neuronal expression (ELISA); assay type: in vivo, mouse; settings: hSyn promoter, vs GFP
5×FAD mice = experiment: Distribution of neuronally expressed ApoE around amyloid plaques in 5×FAD mice (immunofluorescence); assay type: in vivo, mouse; settings: lentiviral vectors
Method: Mice were anesthetized with isoflurane and perfused with 4% PFA. Dissected mouse brains were fixed overnight in 4% PFA and cryoprotected overnight in 30% sucrose. A cryostat (Leica CM3050S) was used to obtain frozen brain slices ([…]) from fixed and cryoprotected mouse brains. Floating slices were washed 3 times with 1×PBS and then permeabilized with 0.5% Triton-X in 1×PBS for 30 minutes. After blocking with 5% BSA in 1×PBS at room temperature for 1 h, the slices were incubated overnight at 4° C. in 5% BSA (in 1×PBS) buffer comprising the primary antibody. Slices were washed 3 times with 1×PBS and incubated with secondary antibody diluted in 5% BSA (1×PBS) buffer for 1 hour at room temperature. Samples were then washed 3 times with 1×PBS and mounted with Prolong Gold Antifade Mountant (Life Technology).
After being deeply anesthetized with isoflurane, mice (5 weeks old) were placed in a stereotaxic apparatus (RWD Instruments). The zero point (x, y, z, 0, 0, 0) is Bregma. Lentivirus (lentivirus-GFP, lentivirus-ApoE and lentivirus-ApoE-IRES-GFP) and AAV (AAV2/9-hSyn-EGFP-WPRE-pA and AAV2/9-hSyn-ApoECT; purchased from Shanghai Taitool Bioscience Co. Ltd.) were injected into the cortex (x, y, z, +/−1.6, 0, −1) or hippocampus (x, y, z, +/−1.5, −2, −1.5), injected 1 ul on each injection site. The mice were then returned to their cages for rehabilitation after surgery.

## ApoE2: human apolipoprotein E2, full-length 299 amino acid residues, SEQ ID NO: 12
[1]
  α-CTF produced by co-expressed APP: can significantly increase α-CTF; also recorded: significantly increased the α-CTF levels
[2]
  α-CTF produced by co-expressed APP: significantly increased the α-CTF levels
[3]
  mRNA and protein expression of ADAM10, BACE1, PS1 and PS2: not altered
wild-type mice
  endogenous Aβ40 in the brain: also reduce endogenous Aβ40 production; also recorded: reduced endogenous Aβ40 in the brain of mice
5×FAD mice
  accumulation around amyloid plaques: a similar distribution pattern was detected around amyloid plaques
